In patent publication US20250120890A1, “Oral Care Compositions Comprising Hops Beta Acids And Tin” (The Procter & Gamble Company, priority 2023, published 2025):

Assay: Headspace measurement of DMDS and MeSH from dentifrice samples by SPME GC-SCD
Type: physicochemical
Details: 0.100 wt % in stannous dentifrice, each pair of samples with/without
Protocol: The oral care compositions of TABLE 2 were prepared by combining one or more humectants, water, sweetener(s), and metal salts, buffers, dyes, and/or stabilizing agents to create a liquid mixture. The liquid mixture was homogenized at 25° C. until homogeneous and completely dissolved. Next, sodium hydroxide (50% solution) was added to the liquid mixture, and the liquid mixture was homogenized at 25° C. until homogeneous and completely dissolved. A separate powder mixture was prepared by combining the abrasive silica, thickening silica, and opacifier, with any thickening agents, such as xanthan gum, Gantrez, and/or sodium carboxymethylcellulose. The powder mixture was then combined with the liquid mixture and homogenized completely. Next, the surfactant, such as sodium lauryl sulfate, flavor, optional Michael acceptor (“MA”), and optional hops extract were added to the mixture. The contents were homogenized at 25° C. until homogeneous, and entrained air was removed by vacuum. […]
Each salt described in Table 3 was weighed with a Mettler Toledo XSE 205 DualRange balance (Mettler Toledo USA, Columbus, OH, USA) and quantitatively transferred to a 600-mL beaker. […]

C/C=C/C(=O)C1C(C)C=CCC1(C)C (stereo not shown) [delta-damascone]
Effect on headspace levels of MeSH and DMDS: reduced the headspace levels of MeSH and DMDS substantially
